Patent US20230272221A1, “REAGENTS FOR LABELING BIOMOLECULES” (Ultima Genomics, Inc., priority 2020, published 2023)

How the values were obtained:
[1] = enzyme-independent bead assay for evaluating quenching with linker arm oligonucleotides; type: physicochemical; conditions: APC (red) channel, FIG. 14
From the text: The dye-labeled nucleotides provided herein may improve quenching between nucleobases and the dyes to which they are attached and/or between dyes in a nucleic acid molecule (e.g., a growing nucleic acid strand), such as in a homopolymeric region of a nucleic acid molecule. Quenching may be evaluated in an enzyme-independent manner.
Synthetic oligos are constructed with one or two “linker arm nucleotides”. Linker arm nucleotides are thymidine analogs with a linker arm containing a primary amine. The oligonucleotide containing the linker arm nucleotide can be labeled with linkers and dyes and HPLC purified. The advantage of using the bead-labeled assay is that exact quantitation of the reagents is not necessary; a large excess can be used in each step and the beads washed, ensuring that only stoichiometric amounts of oligonucleotides are bound to the template. Each dye-linker is put on both oligonucleotides. The beads are measured on the flow cytometer in the APC (red) channel. The percent quenching is determined by the formula: % quenching=100×(1−Flbis/(2*Flmono)).
FIGS. 14 and 15 show quenching results for red dye linkers (FIG. 14) and green dye linkers (FIG. 15). […] The hyp10 or hyp20 linkers improve quenching.

[2] = relative fluorescence of dyes coupled directly to oligos, double-stranded DNA bound to beads, flow cytometer; type: physicochemical; conditions: FIG. 26
Experimental: Fluorescence was measured with double-stranded DNA bound to beads using a flow cytometer. […] Accordingly, green dyes may have an inherent advantage over red dyes. This difference may owe at least in part to Atto633 being hydrophobic while Atto532 is comparatively hydrophilic.

quenching, red dye linkers [1] | brightness of two dyes relative to a single dye coupled to an oligo [2] | SMILES
hyp10 improves quenching | 0.4 × | CC[N+]1=c2cc3c(cc2CCC1)=C(c1ccccc1C(=O)N(C)CCCC(=O)O)c1ccc(N(C)C)cc1C3(C)C [Atto633]
quenching may not be improved |  | CCN1/C(=C/C=C/C=C/C2=[N+](CCCCCC(=O)O)c3ccc(S(=O)(=O)O)cc3C2(C)C)C(C)(C)c2cc(S(=O)(=O)[O-])ccc21 [Cy5]
